Where a name gives a salt, the structure may show the parent alone.
What follows are compounds tested against PDE10A (Homo sapiens, UniProt Q9Y233) (assay: Diaxonhit phosphodiesterase assay (TR-FRET, LANCE cAMP kit), PDE10A).
Assay type: biochemical
Description: (§1) Diaxonhit Phosphodiesterase Assay (PDE10A and PDE4D3)
The PDE assay is based on the homogenous time-resolved fluorescence resonance energy transfer (TR-FRET) technology (LANCE® from Perkin Elmer). […] When there is PDE activity, resulting in the degradation of the cyclic nucleotide, the complex is not formed and a decrease in signal is observed.
The phosphodiesterase assay was developed using the LANCE® cAMP kit (PerkinElmer). The assay buffer contained HBSS with 5 mM HEPES, 0.1% BSA, and 1.5 mM MgCl2, pH 7.4. […] Chemical compounds were dissolved in DMSO (final concentration 2% (v/v)).
(§2) In a 384-well plate, 2 μL of the inhibitor and 3 μL PDE were added to the well, followed by the addition of 5 μl substrate biotinylated cAMP (1:5). After 60 min incubation at room temperature, 10 μL of assay detection mixture was added to the assay plate. After 1 h at room temperature, the signal was measured on EnVision™ (Perkin Elmer).

PDE10A, sequence (Q9Y233 whole entry, looked up): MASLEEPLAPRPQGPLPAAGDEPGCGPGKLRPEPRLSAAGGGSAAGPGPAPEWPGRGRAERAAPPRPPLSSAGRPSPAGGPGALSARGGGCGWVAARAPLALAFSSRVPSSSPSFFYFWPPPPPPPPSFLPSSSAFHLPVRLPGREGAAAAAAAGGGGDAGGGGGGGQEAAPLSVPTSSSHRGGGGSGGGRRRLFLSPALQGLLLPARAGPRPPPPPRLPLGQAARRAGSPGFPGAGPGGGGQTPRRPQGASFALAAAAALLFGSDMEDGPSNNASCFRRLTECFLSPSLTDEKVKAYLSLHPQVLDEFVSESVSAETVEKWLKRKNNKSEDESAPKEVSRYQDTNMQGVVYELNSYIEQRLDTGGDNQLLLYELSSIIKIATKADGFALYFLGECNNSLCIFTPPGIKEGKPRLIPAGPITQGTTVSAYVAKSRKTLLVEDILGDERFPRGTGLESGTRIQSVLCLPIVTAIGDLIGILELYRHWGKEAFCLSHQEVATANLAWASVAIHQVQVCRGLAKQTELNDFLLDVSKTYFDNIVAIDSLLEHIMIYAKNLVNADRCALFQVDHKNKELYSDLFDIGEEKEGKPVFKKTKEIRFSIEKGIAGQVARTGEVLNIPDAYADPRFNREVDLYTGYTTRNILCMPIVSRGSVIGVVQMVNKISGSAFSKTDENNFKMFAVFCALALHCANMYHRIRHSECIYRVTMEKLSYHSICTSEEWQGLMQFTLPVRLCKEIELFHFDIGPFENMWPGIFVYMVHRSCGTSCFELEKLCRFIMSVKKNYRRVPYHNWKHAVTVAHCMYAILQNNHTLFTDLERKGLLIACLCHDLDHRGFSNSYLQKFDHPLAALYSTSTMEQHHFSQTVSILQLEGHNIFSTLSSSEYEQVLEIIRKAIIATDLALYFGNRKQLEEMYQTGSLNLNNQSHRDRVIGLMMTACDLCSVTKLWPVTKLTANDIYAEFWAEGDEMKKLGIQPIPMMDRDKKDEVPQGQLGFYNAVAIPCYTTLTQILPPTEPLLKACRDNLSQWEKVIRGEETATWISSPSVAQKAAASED

Row | SMILES | IC50 [nM]
1 | COc1cc2cncc(Cc3cnc4ccccc4c3)c2cc1O [Compound 29, 7-methoxy-4-(quinolin-3-ylmethyl)isoquinolin-6-ol dihydrochloride] | > 10000
2 | COc1cc2c(Cc3cnc4ccccc4c3)cncc2cc1O [Compound 30, 6-methoxy-4-(quinolin-3-ylmethyl)isoquinolin-7-ol dihydrochloride] | > 10000
3 | COc1cc2c(Cc3cnc4ccccc4c3)cnc(C3CCCCC3)c2cc1OC [Compound 71, 3-((1-cyclohexyl-6,7-dimethoxyisoquinolin-4-yl)methyl)quinoline dihydrochloride] | > 10000

Each compound was assayed against PDE4D3 (Homo sapiens (Human), UniProt Q08499) (assay: Diaxonhit phosphodiesterase assay (TR-FRET, LANCE cAMP kit), PDE4D3).
PDE4D3, sequence (Q08499 other isoform, or with tags, fused parts or gaps): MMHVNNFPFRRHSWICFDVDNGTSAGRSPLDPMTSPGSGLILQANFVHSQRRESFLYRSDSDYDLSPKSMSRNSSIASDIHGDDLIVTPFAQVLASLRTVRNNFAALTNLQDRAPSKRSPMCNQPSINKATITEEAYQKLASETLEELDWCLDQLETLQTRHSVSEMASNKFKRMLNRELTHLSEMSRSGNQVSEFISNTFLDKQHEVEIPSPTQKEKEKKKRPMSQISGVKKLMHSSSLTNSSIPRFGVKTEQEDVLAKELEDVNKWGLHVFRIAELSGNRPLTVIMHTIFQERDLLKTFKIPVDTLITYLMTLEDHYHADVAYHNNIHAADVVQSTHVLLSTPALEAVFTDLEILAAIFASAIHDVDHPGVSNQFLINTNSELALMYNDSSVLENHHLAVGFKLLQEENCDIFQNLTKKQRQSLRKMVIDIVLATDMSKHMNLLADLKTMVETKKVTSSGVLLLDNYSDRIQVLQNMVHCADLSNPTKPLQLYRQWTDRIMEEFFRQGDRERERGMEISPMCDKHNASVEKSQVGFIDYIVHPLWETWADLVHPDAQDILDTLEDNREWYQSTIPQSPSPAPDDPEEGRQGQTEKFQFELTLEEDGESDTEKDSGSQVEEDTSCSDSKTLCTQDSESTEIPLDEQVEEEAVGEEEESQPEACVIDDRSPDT
Assay type: biochemical
From the text: as §1
The PDE assay is based on the homogenous time-resolved fluorescence resonance energy transfer (TR-FRET) technology (LANCE® from Perkin Elmer). This competition based assay is formatted using a cAMP specific antibody labeled with the dye, Alexa Fluor® 647, biotin-cAMP and streptavidin labeled with Europium (Eu-SA). As the complex of Eu-SA/biotin-cAMP/Alexa Fluor 647 labeled antibody is formed, an increase in signal is generated. When there is PDE activity, resulting in the degradation of the cyclic nucleotide, the complex is not formed and a decrease in signal is observed.
The phosphodiesterase assay was developed using the LANCE® cAMP kit (PerkinElmer). The assay buffer contained HBSS with 5 mM HEPES, 0.1% BSA, and 1.5 mM MgCl2, pH 7.4. PDE10A (BPS Bioscience) was used at 200 pg/well (with a specific activity of 3200 pmole/min/μg with assay conditions: 10 mM Tris-HCl, pH 7.4, 10 mM MgCl2, 1 mM MnCl2, 200 μM cAMP, 2.5 kU 5′ nucleotidase, 37° C., 20 min) and PDE4D3 (BPS Bioscience) was used at 100 pg/well (with a specific activity of 32713 pmole/min/μg with assay conditions: 10 mM Tris-HCl, pH 7.4, 10 mM MgCl2, 1 mM MnCl2, 200 μM cAMP, 2.5 kU 5′ nucleotidase, 37° C., 20 min). The Biotin-cAMP tracer, supplied in 10 mmol/L Tris-HCl buffered (pH 8.0) salt solution with 1 mmol/L ethylenediaminetetraacetic acid (EDTA), 0.1% bovine serum albumin (BSA), and 0.05% sodium azide, is used at a dilution of 1/375. The assay detection mixture contained the LANCE Eu-W8044 labeled streptavidin 1/2250 (supplied in 50 mmol/L Tris-HCl buffered (pH 7.8) salt solution with 0.9% sodium chloride (NaCl), 0.1% BSA, and 0.05% sodium azide) and the Alexa Fluor® 647-anti cAMP antibody 1/200 (supplied in 50 mmol/L Tris-HCl buffered (pH 7.8) salt solution with 0.9% NaCl, 0.1% BSA, and 0.05% sodium azide). Chemical compounds were dissolved in DMSO (final concentration 2% (v/v)).
as §2

Row | SMILES | IC50 [nM]
4 | CCc1ncc(Cc2ccc3cccc(O)c3n2)c2cc(OC)c(OC)cc12 [Compound 83, 2-((1-ethyl-6,7-dimethoxyisoquinolin-4-yl)methyl)quinolin-8-ol] | 439
5 | CCc1ncc(Cc2ccc3cccc(NC(=O)C(N)=O)c3n2)c2cc(OC)c(OC)cc12 [Compound 93, N^1-(2-((1-ethyl-6,7-dimethoxyisoquinolin-4-yl)methyl)quinolin-8-yl)oxalamide] | 398
6 | CCCc1ncc(Cc2cnc3ccc(O)c(C(F)(F)F)c3c2)c2cc(OC)c(OC)cc12 [Compound 162, 3-((6,7-dimethoxy-1-propylisoquinolin-4-yl)methyl)-5-(trifluoromethyl)quinolin-6-ol] | 232
7 | COCc1ncc(Cc2cnc3ccc(O)c(C(F)(F)F)c3c2)c2cc(OC)c(OC)cc12 [Compound 169, 3-((6,7-dimethoxy-1-(methoxymethyl)isoquinolin-4-yl)methyl)-5-(trifluoromethyl)quinolin-6-ol] | 194
